Assay [1] has as its target T1, GLP1R (Homo sapiens, UniProt P43220). Also noted: Emax: dose or concentration left out as unconfirmed. The following applies: for Emax: CHO-K1, […], read-out: β-arrestin recruitment Bmax (%). (In general: Recruitment of arrestin is a read-out of receptor activation apart from second messengers.)
Target sequence in this assay (P43220 24-463): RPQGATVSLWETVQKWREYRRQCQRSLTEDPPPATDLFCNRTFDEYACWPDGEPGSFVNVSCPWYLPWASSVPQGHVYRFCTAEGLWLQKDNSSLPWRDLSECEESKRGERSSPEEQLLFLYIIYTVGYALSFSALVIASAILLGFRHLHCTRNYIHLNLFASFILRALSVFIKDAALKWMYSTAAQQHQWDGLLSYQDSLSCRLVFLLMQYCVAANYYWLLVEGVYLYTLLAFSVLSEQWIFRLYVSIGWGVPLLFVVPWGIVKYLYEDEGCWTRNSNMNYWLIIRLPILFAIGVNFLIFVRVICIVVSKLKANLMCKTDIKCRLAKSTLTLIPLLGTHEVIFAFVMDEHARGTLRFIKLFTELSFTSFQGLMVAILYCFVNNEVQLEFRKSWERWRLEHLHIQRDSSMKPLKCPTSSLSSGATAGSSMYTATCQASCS
Target sequence in this assay (P32121 whole entry partner): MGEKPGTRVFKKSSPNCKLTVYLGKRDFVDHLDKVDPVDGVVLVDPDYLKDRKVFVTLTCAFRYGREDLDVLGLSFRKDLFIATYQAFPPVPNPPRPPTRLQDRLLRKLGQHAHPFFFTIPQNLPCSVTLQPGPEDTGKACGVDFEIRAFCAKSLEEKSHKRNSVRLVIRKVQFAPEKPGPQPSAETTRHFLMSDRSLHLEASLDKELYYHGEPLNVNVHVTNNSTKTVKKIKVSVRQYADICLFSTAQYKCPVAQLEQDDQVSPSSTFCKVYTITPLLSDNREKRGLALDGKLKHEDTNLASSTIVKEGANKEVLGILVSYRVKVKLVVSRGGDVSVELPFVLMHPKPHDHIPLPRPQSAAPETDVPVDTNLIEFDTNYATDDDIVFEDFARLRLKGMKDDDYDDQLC
Protocol: Frozen cells were quickly thawed and 10 mL of cell plating medium (provided by the kit) was added to thawed cells. Cells were stored in a 37° C. incubator under 5% CO2 and kept for approximately 48 hours until ready to run the assay.
Reference and test compounds were dissolved in 100% DMSO. […] 5 μL of this solution was added to 20 μL cell medium in assay plate for a final top concentration of 10 μM. Plates were then incubated at 37° C. under 5% CO2 for 90 min.
Following 90 min incubation, detection reagents were made up by combining 1 part Galacton Star Substrate with 5 parts Emerald II™ Solution, and 19 parts of PathHunter Cell Assay Buffer, respectively. 12.5 μl detection reagent was added to each well. The plates were then incubated at room temperature in dark for 60 min. Plates were then read on Envision for 0.1 sec/well.
Cells were plated at a density of 1000 or 2000 cells/20 μL/well. Frozen cells were quickly thawed and added to 10 mL of cell plating medium. Cells were stored in a 37 degree incubator under 5% CO2 and left for approximately 48 hours until ready to run the assay
Prepare 10× concentration of an agonist in serum free DMEM, and add all solutions into the compound plate. 2.5 μL of this solution was added to 20 μL cell medium in assay plate for a final top concentration of 10 μM. Plates were incubated at 37° C. under 5% CO2 for 30 min. An additional 2.5 μL of Buffer was added to the entire plate for agonist mode and incubated at 37° C. for another 90 min.
Following 90 min incubation, detection reagents were made up as described. 12.5 μL was added to all wells. The plates were then incubated at room temperature in dark for 60 min. Plates were then read on Envision for 0.1 sec/well.
Data analysis: GraphPad Prism 6 was used for establishment of progression curve. EC50s or IC50s were determined by 4-parameter logistic dose response equation.
Assay [2] has as its target T1, GLP1R. Nature of the assay: GLP1R cAMP assay (HTRF), HEK293/GLP-1R/CRE/Luc, Clone 4. In general terms: Changes in cAMP serve as a functional read-out for many G protein-coupled receptors.
Target sequence in this assay (P43220 24-463): as the sequence (P43220 24-463) above
Protocol: GLP-1R-mediated agonist activity was determined with a cell-based functional assay utilizing an HTRF (Homogeneous Time-Resolved Fluorescence) cAMP detection kit (cAMP Dynamic 2 Assay Kit; CisBio cat #62AM4PEC) that measures cAMP levels in the cell. The method is a competitive immunoassay between native cAMP produced by the cells and exogenous cAMP labeled with the dye d2. The tracer binding is visualized by a mAb anti-cAMP labeled with Cryptate. The specific signal (i.e., energy transfer) is inversely proportional to the concentration of cAMP in either standard or experimental sample.
The human GLP-1R coding sequence (NCBI Reference Sequence NM_002062) was subcloned into pcDNA3.1+/Hygro vector (Invitrogen) and transfected into HEK293/CRE/Luc parental cell line. A cell line stably expressing the receptor was isolated.
Varying concentrations of each compound to be tested (in DMSO) were diluted in DMSO to obtain 200× compound working solution first and then 50 nl compounds were added to a white 384-well assay plate (Greiner 784075) with ECHO. The final DMSO concentration was 0.5%.
Cells were removed from cryopreservation, re-suspended in 5 mL of Dulbecco's Phosphate Buffered Saline (DPBS-Sigma Cat #D8537) and centrifuged at 900×g for 5 min at 22° C. The cell pellet was then re-suspended in 1 mL of assay buffer [DPBS with 500 μM IBMX (Sigma #15879) and 0.1% BSA (Sigma #A1933). IBMX and BSA were freshly added on the day of assay]. A 10 μL sample of the cell suspension was counted on an Invitrogen Countess II to determine cell viability and cell count per mL. The remaining cell suspension was then adjusted with assay buffer to deliver 1000 viable cells per well using a Matrix Combi Multidrop reagent dispenser. 10 μL cell suspensions were added to each well
of the assay plate which already contains compound. The plate was sealed and incubated at 37° C. with 5% CO2 for 30 minutes.
Following the 30 minute incubation, 5 μL of labeled d2 cAMP and 5 μL of anti-cAMP antibody (both diluted 1:20 in cell lysis buffer; as described in the manufacturer's assay protocol) were added to each well of the assay plate. The plates were then incubated at room temperature and after 60 minutes, changes in the HTRF signal were read with an Envision multi-label plate reader using excitation of 330 nm and emissions of 615 and 665 nm. Raw data were converted to nM cAMP by interpolation from a cAMP standard curve (as described in the manufacturer's assay protocol) and the percent effect was determined relative to a saturating concentration of the full agonist GLP-17-37 (10 nM) included on each plate. EC50 determinations were made from agonist dose-response curves analyzed with a curve fitting program using a 4-parameter logistic dose response equation.
Assay [3] addresses T1, GLP1R. Nature of the assay: β-Arrestin-mediated GLP1R internalization assay (PathHunter U2OS cells). In kind it is cell-based. Also noted: host or cells: PathHunter engineered U2OS cells. Particulars: averaged Bmax where applicable, Percentage of Control GLP-1 (7-37), top 10 μM, 180 min. The source says: A similar assay can also be used to assess the extent of signal attenuation due to GLP-1R internalization (the Internalization Assay). In this assay, activated GLP1R Internalization cells were engineered to co-express an untagged GLP1R, Enzyme Acceptor (EA) tagged β-Arrestin, and a ProLink™ (PK) tag localized to the endosomes. Activation of the GLP1R induces β-Arrestin recruitment, which leads to internalization of the Receptor/Arrestin-EA complex in PK-tagged endosomes. This forces complementation of the two β-galactosidase enzyme fragments (EA and PK) to form a functional enzyme that hydrolyzes substrate to generate a chemiluminescent signal.
Frozen cells were quickly thawed and 10 mL of cell plating medium (provided by the kit) was added to thawed cells. Cells were stored in a 37° C. incubator and kept for approximately 48 hours until ready for the assay.
Reference and test compounds were dissolved in 100% DMSO. […] 5 μL of this solution was added to 20 μL cell medium in assay plate for a final top concentration of 10 μM. Plates were incubated at 37° C. for 180 min.
Following 180 min incubation, detection reagents were made up by combining 1 part Galacton Star Substrate with 5 parts Emerald II™ Solution, and 19 parts of PathHunter Cell Assay Buffer, respectively. 12.5 μL detection reagent was added to each well. The plates were then incubated at room temperature for 60 min. Plates were then read on Envision for 0.1 sec/well.
EC50 determinations were made from agonist dose-response curves analyzed with a curve fitting program using a 4-parameter logistic dose response equation.
Target sequence in this assay (P43220 24-463): as above
Target sequence in this assay (P32121 whole entry partner): as the sequence (P32121 whole entry partner) above

Where only a bound is given, the exact number is not on record here.

As usually defined, the EC50 is the concentration needed to bring the measured effect to its halfway point. As for `O=C(O)c1ccc2nc(Cc3ccc(-c4nc(OCc5ccc(Cl)cc5F)ncc4F)c(F)c3)n(C[C@@H]3CCO3)c2c1` [Compound 82, (S)-2-(4-(2-(4-chloro-2-fluorobenzyloxy)-5-fluoropyrimidin-4-yl)-3-fluorobenzyl)-1-(oxetan-2-ylmethyl)-1H-benzo[d]imidazole-6-carboxylic acid], the Emax on GLP1R [1] was 20.1%. The compound further gave an EC50 at GLP1R [2] below 0.015 µM. In addition, the “β-arrestin internalization Bmax (POC)” value on GLP1R [3] stood at 13.8 POC.

`O=C(O)c1ccc2nc(Cc3ccc(-c4ccc(F)c(OCc5ccc(Cl)cc5F)n4)c(F)c3)n(C[C@@H]3CCO3)c2c1` [Compound 83, (S)-2-(4-(6-((4-chloro-2-fluorobenzyl)oxy)-5-fluoropyridin-2-yl)-3-fluorobenzyl)-1-(oxetan-2-ylmethyl)-1H-benzo[d]imidazole-6-carboxylic acid]: on GLP1R [1], the Emax amounted to 44.6%. Moreover, the EC50 on GLP1R [2] is below 0.015 µM. For the same compound, the “β-arrestin internalization Bmax (POC)” value at GLP1R [3] was 27.8 POC.

On to `O=C(O)c1ccc2nc(Cc3ccc(-c4ccc(F)c(OCc5ccc(Cl)cc5F)c4)cc3F)n(C[C@@H]3CCO3)c2c1` [Compound 85], for which the Emax at GLP1R [1] amounted to 37%. In addition, the EC50 on GLP1R [2] is below 0.015 µM. On GLP1R [3], the “β-arrestin internalization Bmax (POC)” value is given as 29.5 POC.

In the case of `O=C(O)c1ccc2nc(Cc3ccc(-c4nccc(OCc5ccc(Cl)cc5F)n4)cc3F)n(C[C@@H]3CCO3)c2c1` [Compound 86, (S)-2-(4-(4-((4-chloro-2-fluorobenzyl)oxy)pyrimidin-2-yl)-2-fluorobenzyl)-1-(oxetan-2-ylmethyl)-1H-benzo[d]imidazole-6-carboxylic acid], the Emax at GLP1R [1] worked out at 33.5%. At GLP1R [2], the EC50 was below 0.015 µM. Moreover, the “β-arrestin internalization Bmax (POC)” value on GLP1R [3] stood at 41.8 POC.

Turning to `O=C(O)c1ccc2nc(Cc3ccc(-c4ccnc(OCc5ccc(Cl)cc5F)n4)cc3F)n(C[C@@H]3CCO3)c2c1` [Compound 87, (S)-2-(4-(2-((4-chloro-2-fluorobenzyl)oxy)pyrimidin-4-yl)-2-fluorobenzyl)-1-(oxetan-2-ylmethyl)-1H-benzo[d]imidazole-6-carboxylic acid], the Emax at GLP1R [1] was determined as 33.1%. The compound also yielded an EC50 at GLP1R [2] below 0.015 µM. On GLP1R [3], the “β-arrestin internalization Bmax (POC)” value amounted to 23.9 POC.

`O=C(O)c1ccc2nc(Cc3ccc(-c4ccc(F)c(OCc5ccc(Cl)cc5F)n4)cc3F)n(C[C@@H]3CCO3)c2c1` [Compound 88, (S)-2-(4-(6-(4-chloro-2-fluorobenzyloxy)-5-fluoropyridin-2-yl)-2-fluorobenzyl)-1-(oxetan-2-ylmethyl)-1H-benzo[d]imidazole-6-carboxylic acid]: the Emax on GLP1R [1] amounted to 44.6%. Also, the EC50 on GLP1R [2] was below 0.015 µM. Further, the “β-arrestin internalization Bmax (POC)” value on GLP1R [3] came to 29.2 POC.

As for `O=C(O)c1ccc2nc(Cc3ccc(-c4cccc(OCc5ccc(Cl)cc5F)c4)cc3F)n(C[C@@H]3CCO3)c2c1` [Compound 89, (S)-2-((3′-((4-chloro-2-fluorobenzyl)oxy)-3-fluoro-[1,1′-biphenyl]-4-yl)methyl)-1-(oxetan-2-ylmethyl)-1H-benzo[d]imidazole-6-carboxylic acid], at GLP1R [1], the Emax came to 25.3%. In addition, on GLP1R [2], the EC50 was below 0.015 µM. In addition, on GLP1R [3], the “β-arrestin internalization Bmax (POC)” value was 20.0 POC.

Turning to `O=C(O)c1ccc2nc(Cc3ccc(-c4ncc(F)c(OCc5ccc(Cl)cc5F)n4)cc3F)n(C[C@@H]3CCO3)c2c1` [Compound 90, (S)-2-(4-(4-((4-chloro-2-fluorobenzyl)oxy)-5-fluoropyrimidin-2-yl)-2-fluorobenzyl)-1-(oxetan-2-ylmethyl)-1H-benzo[d]imidazole-6-carboxylic acid], the Emax on GLP1R [1] came to 29.5 ± 3.21%. The EC50 on GLP1R [2] was below 0.015 µM. At GLP1R [3], the “β-arrestin internalization Bmax (POC)” value was found to be 21.6 POC.

As for `O=C(O)c1ccc2nc(Cc3ccc(-c4nc(OCc5ccc(Cl)cc5F)ncc4F)cc3F)n(C[C@@H]3CCO3)c2c1` [Compound 91, (S)-2-(4-(2-(4-chloro-2-fluorobenzyloxy)-5-fluoropyrimidin-4-yl)-2-fluorobenzyl)-1-(oxetan-2-ylmethyl)-1H-benzo[d]imidazole-6-carboxylic acid], on GLP1R [1], the Emax was determined as 35.8%. The compound further registered an EC50 on GLP1R [2] below 0.015 µM. Further, on GLP1R [3], the “β-arrestin internalization Bmax (POC)” value is given as 21.6 POC.

As to `O=C(O)c1ccc2nc(Cc3ccc(-c4cccc(OCc5ccc(Cl)cc5F)n4)cc3)n(C[C@@H]3CCO3)c2c1` [Compound 94, (S)-2-(4-(6-((4-chloro-2-fluorobenzyl)oxy)pyridin-2-yl)benzyl)-1-(oxetan-2-ylmethyl)-1H-benzo[d]imidazole-6-carboxylic acid], the “β-arrestin recruitment Bmax (%)” value at GLP1R [1] (partial maximum relative effect at the highest concentration tested (top 10 μM), relative to Bmax of GLP-1 (7-37), PathHunter CHO-K1 GLP1R β-Arrestin cells) is on record as 33.3%. Moreover, the EC50 on GLP1R [2] is below 0.015 µM. In addition, the “β-arrestin internalization Bmax (POC)” value at GLP1R [3] turned out to be 27.3 ± 7.75 POC.

As to `O=C(O)c1ccc2nc(Cc3ccc(-c4cccc(OCc5ccc(Cl)cc5F)n4)nc3)n(C[C@@H]3CCO3)c2c1` [Compound 100, (S)-2-((6′-(4-chloro-2-fluorobenzyloxy)-2,2′-bipyridin-5-yl)methyl)-1-(oxetan-2-ylmethyl)-1H-benzo[d]imidazole-6-carboxylic acid], at GLP1R [1], the Emax was 0.971%. Moreover, the EC50 on GLP1R [2] was above 1 µM. In addition, on GLP1R [3], the “β-arrestin internalization Bmax (POC)” value is recorded as 0.881 POC.

For the compound `O=C(O)c1ccc2nc(Cc3ccc(-c4cccc(OCc5ccc(Cl)cc5F)n4)cn3)n(C[C@@H]3CCO3)c2c1` [Compound 101, (S)-2-((6-((4-chloro-2-fluorobenzyl)oxy)-[2,3′-bipyridin]-6′-yl)methyl)-1-(oxetan-2-ylmethyl)-1H-benzo[d]imidazole-6-carboxylicacid], the Emax at GLP1R [1] came out at 1.05%. Moreover, at GLP1R [2], the EC50 was above 1 µM. Further, the “β-arrestin internalization Bmax (POC)” value on GLP1R [3] came out at 3.08 POC.

In the case of `O=C(O)c1ccc2nc(Cc3ccc(-c4cccc(OCc5ccc(Cl)cc5F)n4)c(F)c3F)n(C[C@@H]3CCO3)c2c1` [Compound 262, (S)-2-(4-(6-(4-chloro-2-fluorobenzyloxy)pyridin-2-yl)-2,3-difluorobenzyl)-1-(oxetan-2-ylmethyl)-1H-benzo[d]imidazole-6-carboxylic acid], the Emax at GLP1R [1] was 47.3 ± 4.55%. On GLP1R [2], this compound came in with an EC50 below 0.015 µM. For the same compound, the “β-arrestin internalization Bmax (POC)” value on GLP1R [3] was 25.4 ± 1.39 POC.

For the compound `O=C(O)c1ccc2nc(Cc3ccc(-c4ccc(F)c(OCc5ccc(F)cc5F)n4)c(F)c3)n(C[C@@H]3CCO3)c2n1` [Compound 267, (S)-2-(4-(6-(2,4-difluorobenzyloxy)-5-fluoropyridin-2-yl)-3-fluorobenzyl)-3-(oxetan-2-ylmethyl)-3H-imidazo[4,5-b]pyridine-5-carboxylic acid], the Emax at GLP1R [1] worked out at 41.7 ± 3.45%. On GLP1R [2], this compound gave an EC50 below 0.015 µM. The “β-arrestin internalization Bmax (POC)” value at GLP1R [3] was 30.2 ± 6.53 POC.

In the case of `O=C(O)c1ccc2nc(Cc3ccc(-c4ccc(F)c(OCc5ccc(F)cc5F)n4)cc3F)n(C[C@@H]3CCO3)c2n1` [Compound 277, (S)-2-(4-(6-(2,4-difluorobenzyloxy)-5-fluoropyridin-2-yl)-2-fluorobenzyl)-3-(oxetan-2-ylmethyl)-3H-imidazo[4,5-b]pyridine-5-carboxylic acid], the Emax at GLP1R [1] stood at 39.3 ± 4.96%. In addition, the EC50 at GLP1R [2] was below 0.015 µM. Besides, on GLP1R [3], the “β-arrestin internalization Bmax (POC)” value is given as 23.0 POC.

`O=C(O)c1ccc2nc(Cc3ccc(-c4cccc(OCc5ccc(Cl)cc5F)n4)cc3F)n(C[C@@H]3CCO3)c2n1` [Compound 281, 2-[[4-[6-[(4-chloro-2-fluoro-phenyl)methoxy]-2-pyridyl]-2-fluoro-phenyl]methyl]-3-[[(2S)-oxetan-2-yl]methyl]imidazo[4,5-b]pyridine-5-carboxylic acid]: the Emax on GLP1R [1] was 48.5 ± 6.64%. In addition, the EC50 at GLP1R [2] is below 0.015 µM. Also, the “β-arrestin internalization Bmax (POC)” value at GLP1R [3] came to 36.5 POC.

On to `O=C(O)c1ccc2nc(Cc3ccc(-c4cccc(OCc5ccc(F)cc5F)n4)c(F)c3)n(C[C@@H]3CCO3)c2n1` [Compound 290, (S)-2-(4-(6-((2,4-difluorobenzyl)oxy)pyridin-2-yl)-3-fluorobenzyl)-3-(oxetan-2-ylmethyl)-3H-imidazo[4,5-b]pyridine-5-carboxylic acid], for which the Emax on GLP1R [1] came to 39.9 ± 4.4%. For the same compound, at GLP1R [2], the EC50 was below 0.015 µM. In addition, the “β-arrestin internalization Bmax (POC)” value at GLP1R [3] was 21.6 ± 3.52 POC.

For the compound `N#Cc1ccc(COc2ncc(F)c(-c3ccc(Cc4nc5ccc(C(=O)O)nc5n4C[C@@H]4CCO4)c(F)c3)n2)c(F)c1` [Compound 291, (S)-2-(4-(2-((4-cyano-2-fluorobenzyl)oxy)-5-fluoropyrimidin-4-yl)-2-fluorobenzyl)-3-(oxetan-2-ylmethyl)-3H-imidazo[4,5-b]pyridine-5-carboxylic acid], the Emax at GLP1R [1] came to 29.4 ± 6.84%. For the same compound, at GLP1R [2], the EC50 is below 0.015 µM. Also, at GLP1R [3], the “β-arrestin internalization Bmax (POC)” value was 22.8 ± 0.142 POC.

For the origin of these results see US10954221B2, “GLP-1R agonists and uses thereof” (QILU REGOR THERAPEUTICS INC., priority 2019, dated 2021).
